# Where a name gives a salt, the structure may show the parent alone. Read-outs that look alike come from different tables or passages of the source.
# Key:
# Assay type in all cases: cell-based
# S. uberis ATCC 19436 = assay: MIC by broth microdilution, S. uberis; details: Streptococcus uberis
# Description: (§1) Antibacterial susceptibility testing was performed in triplicate (biological) by measuring minimum inhibitory concentrations (MICs) by broth microdilution in 96-well flat bottom microtiter plates (ThermoFisher Scientific, New Zealand). S. uberis ATCC 19436, S. aureus ATCC 6538, or E. coli ATCC 10596 cells grown overnight were diluted to an OD600 of approximately 0.025, so that the final concentration of cells in the MIC assay was approximately 5×10^5 cfu/mL in media as follows: S. uberis; Todd Hewitt Broth (THB), S. aureus; Tryptic Soy Broth (TSB) and Cation Adjusted Muller Hinton Broth (CAMHB), and E. coli; Lysogeny Borth (LB) and CAMHB, before being dispensed into microtiter wells. As required additional sterile Zinc Sulphate (Heptahydrate) was supplemented into the media, so the final concentration was 50 μM. Test compounds were added to starting wells and two-fold serial dilutions were undertaken to generate a range of inhibitor concentrations at a final volume of 200 μl. Media and test compound-free (untreated) controls were included in each microtiter plate in triplicate. After 24 h incubation at 37° C. and 200 rpm, the OD600 of wells were read using a Varioskan Flash plate reader (ThermoFisher Scientific, New Zealand). The MIC was reported as the lowest concentration of the test compound for which no growth occurred, as determined by OD600 readings. The minimum bactericidal concentration (MBC) was determined using the Miles-Misra drop-plate method to measure the viability of cells in response to test compound challenge.
# S. aureus ATCC 6538 = assay: MIC by broth microdilution, S. aureus; details: Staphylococcus aureus
# Description: as §1
# E. coli ATCC 10596 = assay: MIC by broth microdilution, E. coli; details: Escherichia coli
# Description: as §1
# [1] = ATCC19436, No Zinc, read-out: S. uberis ATCC 19436 MIC
# [2] = ATCC19436, Zinc (50 μM), read-out: S. uberis ATCC 19436 MIC
# [3] = ATCC6538, No Zinc, read-out: S. aureus ATCC 6538 MIC
# [4] = ATCC6538, Zinc (50 μM), read-out: S. aureus ATCC 6538 MIC
# [5] = ATCC 10536 / ATCC 10596, No Zinc, read-out: E. coli ATCC 10536 MIC
# [6] = ATCC 10536 / ATCC 10596, Zinc (50 μM), read-out: E. coli ATCC 10536 MIC
# [7] = ATCC19436, read-out: S. uberis ATCC 19436 MIC, No Zinc
# [8] = ATCC19436, read-out: S. uberis ATCC 19436 MIC, Zinc (50 μM)
# [9] = ATCC6538, read-out: S. aureus ATCC 6538 MIC, No Zinc
# [10] = ATCC6538, read-out: S. aureus ATCC 6538 MIC, Zinc (50 μM)
# [11] = ATCC 10536 / ATCC 10596, read-out: E. coli ATCC 10536 MIC, No Zinc
# [12] = ATCC 10536 / ATCC 10596, read-out: E. coli ATCC 10536 MIC, Zinc (50 μM)
Compound,MIC (S. uberis ATCC 19436; [1]) [µg/mL],MIC (S. uberis ATCC 19436; [2]) [µg/mL],MIC (S. aureus ATCC 6538; [3]) [µg/mL],MIC (S. aureus ATCC 6538; [4]) [µg/mL],MIC (E. coli ATCC 10596; [5]) [µg/mL],MIC (E. coli ATCC 10596; [6]) [µg/mL],MIC (S. uberis ATCC 19436; [7]) [µg/mL],MIC (S. uberis ATCC 19436; [8]) [µg/mL],MIC (S. aureus ATCC 6538; [9]) [µg/mL],MIC (S. aureus ATCC 6538; [10]) [µg/mL],MIC (E. coli ATCC 10596; [11]) [µg/mL],MIC (E. coli ATCC 10596; [12]) [µg/mL]
"CC(C)NCc1ccc2cccc(NS(=O)(=O)c3ccc(C(F)(F)F)cc3)c2n1 [ZDR027, N-(2-((Isopropylamino)methyl)quinolin-8-yl)-4-(trifluoromethyl)-benzenesulfonamide]",64,0.125,16,16,> 256,> 256,,,,,,
"CN(C)Cc1ccc2cccc(NS(=O)(=O)c3cccc(Br)c3)c2n1 [ZDR309, 3-Bromo-N-(2-((dimethylamino)methyl)quinolin-8-yl)benzenesulfonamide]",128,0.125,64,128,> 256,> 256,,,,,,
"CN(C)Cc1ccc2cccc(NS(=O)(=O)c3cccc(C#N)c3)c2n1 [ZDR076, 3-cyano-N-(2-((dimethylamino)methyl)quinolin-8-yl)benzenesulfonamide]",> 256,1,> 256,> 256,> 256,> 256,,,,,,
"CC(=O)c1ccc(S(=O)(=O)Nc2cccc3ccc(CN(C)C)nc23)cc1 [ZDR070, 4-Acetyl-N-(2-((dimethylamino)methyl)quinolin-8-yl)benzenesulfonamide]",> 256,0.5,> 256,> 256,> 256,> 256,,,,,,
"Cc1ccc2cccc(NS(=O)(=O)c3ccc(C(F)(F)F)cc3)c2n1 [ZDR018, N-(2-Methylquinolin-8-yl)-4-(trifluoromethyl)benzenesulfonamide]",> 256,0.125,> 256,> 256,> 256,> 256,,,,,,
"CN(C)Cc1ccc2cccc(NS(=O)(=O)Cc3ccc(C(F)(F)F)cc3)c2n1 [ZDR320, N-(2-((Dimethylamino)methyl)quinolin-8-yl)-1-(4-(trifluoromethyl)phenyl)methanesulfonamide]",256,0.0625,> 256,128,> 256,> 256,,,,,,
"O=S(=O)(Nc1cccc2ccc(CNCC(O)CO)nc12)c1ccc(C(F)(F)F)cc1 (stereo not drawn) [ZDR093, N-(2-(((2,3-Dihydroxypropyl)amino)methyl)quinolin-8-yl)-4-(trifluoromethyl)benzenesulfonamide]",64,16,64,128,256,> 256,,,,,,
"CC(C)(C)OC(=O)N=C(NCc1ccc2cccc(NS(=O)(=O)c3ccc(C(F)(F)F)cc3)c2n1)NC(=O)OC(C)(C)C [ZDR186, N-(2-(N,N′-Bis-Boc-Guanidinomethyl)quinolin-8-yl)-4-(trifluoromethyl)benzenesulfonamide]",> 256,0.25,> 256,> 256,> 256,> 256,,,,,,
"CN(C)Cc1ccc2cccc(NS(=O)(=O)c3cccc4nsnc34)c2n1 [ZDR196, N-(2-((Dimethylamino)methyl)quinolin-8-yl)benzo[c][1,2,5]thiadiazole-4-sulfonamide]",256,0.0625,> 256,32,> 256,> 256,,,,,,
"CCC(C)NCc1ccc2cccc(NS(=O)(=O)c3ccc(C(F)(F)F)cc3)c2n1 (stereo not drawn) [ZDR402, N-(2-((sec-Butylamino)methyl)quinolin-8-yl)-4-(trifluoromethyl)benzenesulfonamide]",16,0.125,32,128,256,> 256,,,,,,
"CN(C)Cc1ccc2cccc(NS(=O)(=O)c3ccc(N)cc3)c2n1 [ZDR160, 4-Amino-N-(2-((dimethylamino)methyl)quinolin-8-yl)benzenesulfonamide]",256,> 256,> 256,> 256,> 256,> 256,,,,,,
"CNCc1ccc2cccc(NS(=O)(=O)c3ccc(C(F)(F)F)cc3)c2n1 [ZDR024, N-(2-((Methylamino)methyl)quinolin-8-yl)-4-(trifluoromethyl)-benzenesulfonamide]",64,0.25,16,8,256,≥ 256,,,,,,
"O=C(CNCc1ccc2cccc(NS(=O)(=O)c3ccc(C(F)(F)F)cc3)c2n1)NCCCN1CCCCC1 [ZDR262, N-(3-(Piperidin-1-yl)propyl)-2-(((8-((4-(trifluoromethyl)phenyl)sulfonamido)quinolin-2-yl)methyl)amino)acetamide di-trifluoroacetate]",,,,,,,8,16,64,128,32,64
O=S(=O)(Nc1cccc2ccc(CNCc3ccccc3)nc12)c1ccc(C(F)(F)F)cc1 [ZDR103],> 256,0.125,128,> 256,> 256,> 256,,,,,,
"CN(C)Cc1ccc2cccc(NS(=O)(=O)c3ccccc3C#N)c2n1 [ZDR077, N-(2-((Dimethylamino)methyl)quinolin-8-yl)-2-cyanobenzenesulfonamide]",> 256,1,> 256,> 256,> 256,> 256,,,,,,
"COC(=O)c1cccc(S(=O)(=O)Nc2cccc3ccc(CN(C)C)nc23)c1 [ZDR308, Methyl 3-(N-(2-((dimethylamino)methyl)quinolin-8-yl)sulfamoyl)benzoate]",256,0.25,256,> 256,256,> 256,,,,,,
"CN(C)Cc1ccc2cccc(NS(=O)(=O)c3cccc(C(N)=O)c3)c2n1 [ZDR331, 3-(N-(2-((Dimethylamino)methyl)quinolin-8-yl)sulfamoyl)benzamide]",> 256,16,> 256,> 256,> 256,> 256,,,,,,
"NC(=O)CNCc1ccc2cccc(NS(=O)(=O)c3ccc(C(F)(F)F)cc3)c2n1 [ZDR266, 2-(((8-((4-(Trifluoromethyl)phenyl)sulfonamido)quinolin-2-yl)methyl)amino)acetamide trifluoroacetate]",,,,,,,16,16,64,32,128,256
"CN(C)Cc1ccc2cccc(NS(=O)(=O)c3cccs3)c2n1 [ZDR080, N-(2-((Dimethylamino)methyl)quinolin-8-yl)thiophene-2-sulfonamide]",> 256,0.25,> 256,> 256,> 256,> 256,,,,,,

# — patent US11691949B2, “Quinoline sulfonamide compounds and their use as antibacterial agents” (OTAGO INNOVATION LIMITED, priority 2017, dated 2023)
